Test [1] has as its system PglJ Cc 33237. Conditions: 20 μM Und-PP-diNAcBac-GalNAc; 0.1 nM enzyme; 5 mM MgCl2; 0.1% Triton X-100; 50 mM HEPES pH 7.5; 100 mM NaCl.
Test [2] deals with PglJ Cc 13826. The conditions noted are these: 20 μM Und-PP-diNAcBac-GalNAc; 0.1 nM enzyme; 5 mM MgCl2; 0.1% Triton X-100; 50 mM HEPES pH 7.5; 100 mM NaCl.
The target in the next test is PglJ Cj 11168 (Campylobacter jejuni, UniProt Q0P9C7). Description: UDP-Glo glycosyltransferase assay, UDP-sugar screen. In kind it is biochemical. The conditions noted are these: 10 nM enzyme; 25 μM UDP-sugar; 20 μM Und-PP-diNAcBac-GalNAc; 5 mM MgCl2; pH 7.5.
The test system of test [3] is PglJ Cc 33237. The conditions noted are these: 25 μM UDP-sugar; 20 μM Und-PP-diNAcBac-GalNAc; 5 mM MgCl2; pH 7.5; varying enzyme.
Test [4] has as its system PglJ Cc 13826. The conditions noted are these: 1 mM ligand; 10 mM HEPES pH 7.5; 150 mM NaCl; 5% glycerol; 2 mM DTT; 0.03% DDM.
Test [5] has as its system PglJ Cc 33237. Conditions: 1 mM ligand; 10 mM HEPES pH 7.5; 150 mM NaCl; 5% glycerol; 2 mM DTT; 0.03% DDM.

With `CC(=O)N[C@H]1[C@@H](OP(=O)(O)OP(=O)(O)OC[C@H]2O[C@@H](n3ccc(=O)[nH]c3=O)[C@H](O)[C@@H]2O)O[C@H](C(=O)O)[C@H](O)[C@@H]1O` [UDP-GalNAcA], the values for the Km in the test with PglJ Cc 33237 [1] and in the test on PglJ Cc 13826 [2] were 7.4 ± 2.5 µM and 3.8 ± 1.9 µM, respectively.
As for `CC(=O)N[C@H]1[C@@H](OP(=O)(O)OP(=O)(O)OC[C@H]2O[C@@H](n3ccc(=O)[nH]c3=O)[C@H](O)[C@@H]2O)O[C@H](CO)[C@H](O)[C@@H]1O` [UDP-GalNAc], the “UDP-Glo glycosyltransferase assay, UDP-sugar screen” value is reported as “At the same concentration, the PglJ from C. jejuni preferred UDP-GalNAc” on PglJ Cj 11168 and “this variant now transfers GalNAc from UDP-GalNAc onto the growing Und-PP-glycan” in the test with PglJ Cc 33237 [3].
As to `CC(=O)N[C@H]1[C@@H](OP(=O)(O)OP(=O)(O)OC[C@H]2O[C@@H](n3ccc(=O)[nH]c3=O)[C@H](O)[C@@H]2O)O[C@H](C(=O)O)[C@@H](O)[C@@H]1O` [UDP-GlcNAcA], the dTm result is “(UDP-GalNAcA and UDP-GlcNAcA) stabilized the PglJ enzymes from both strains of C. concisus studied” with PglJ Cc 13826 [4]; “(UDP-GalNAcA and UDP-GlcNAcA) stabilized the PglJ enzymes from both strains of C. concisus studied” in the test on PglJ Cc 33237 [5].
Regarding `O=c1ccn([C@@H]2O[C@H](COP(=O)(O)OP(=O)(O)O)[C@@H](O)[C@H]2O)c(=O)[nH]1` [UDP], the dTm entry in the test on PglJ Cc 13826 [4] is on record as “Significant stabilization was observed with UDP, the nucleotide product of the glycosyltransferase reaction”; with PglJ Cc 33237 [5], “Significant stabilization was observed with UDP, the nucleotide product of the glycosyltransferase reaction”.

The values are drawn from paper PMC10873021 (Biochemistry, 2023).
